Source: PubChem BioAssay (NCI)
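Five concentrations, 48 hours, 96-well plates. Abbreviation: GI50, concentration required for 50% inhibition of growth. Definition used: TGI = concentration required for complete inhibition of growth.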

What was measured:
Test in all cases: NCI anticancer screen, dose series, 48 h
[1] = tested on: RXF 393 renal
[2] = tested on: M14 melanoma
[3] = tested on: T-47D breast
[4] = tested on: SK-OV-3 ovarian
[5] = tested on: UACC-257 melanoma
[6] = tested on: SF-539 CNS
[7] = tested on: HCC-2998 colon
[8] = tested on: K-562 leukemia
[9] = tested on: UACC-62 melanoma
[10] = tested on: IGROV1 ovarian
[11] = tested on: ACHN renal
[12] = tested on: RPMI-8226 leukemia
[13] = tested on: UO-31 renal
[14] = tested on: SK-MEL-2 melanoma
[15] = tested on: COLO 205 colon
[16] = tested on: HOP-92 NSCLC
[17] = tested on: SNB-75 CNS
[18] = tested on: MALME-3M melanoma
[19] = tested on: HT29 colon
[20] = tested on: A549 NSCLC
[21] = tested on: HCT-116 colon
[22] = tested on: OVCAR-8 ovarian
[23] = tested on: SK-MEL-28 melanoma
[24] = tested on: CAKI-1 renal
[25] = tested on: NCI-H522 lung
[26] = tested on: MCF7 breast
[27] = tested on: OVCAR-3 ovarian
[28] = tested on: PC-3 prostate
[29] = tested on: OVCAR-5 ovarian
[30] = tested on: MDA-MB-435
[31] = tested on: EKVX NSCLC
[32] = tested on: SW-620 colon
[33] = tested on: 786-0 renal
[34] = tested on: BT-549 breast
[35] = tested on: LOX IMVI melanoma
[36] = tested on: MDA-MB-231 breast
[37] = tested on: DU-145 prostate
[38] = tested on: U251 CNS
[39] = tested on: HL-60(TB) leukemia
[40] = tested on: KM12 colon
[41] = tested on: SNB-19 CNS
[42] = tested on: NCI-H23 lung
[43] = tested on: OVCAR-4 ovarian
[44] = tested on: SN12C renal
[45] = tested on: SR leukemia
[46] = tested on: HCT-15 colon
[47] = tested on: SF-268 CNS

Q: What does the source list for O=C1c2ccccc2-c2c1c1ccc([N+](=O)[O-])cc1c(=O)n2CCCBr?
A: GI50 [1]: > 100 µM; TGI [1]: > 100 µM; GI50 [2]: 3.26 µM; TGI [2]: > 100 µM; GI50 [3]: > 100 µM; TGI [3]: > 100 µM; GI50 [4]: > 100 µM; TGI [4]: > 100 µM; GI50 [5]: > 100 µM; TGI [5]: > 100 µM; GI50 [6]: > 100 µM; TGI [6]: > 100 µM; GI50 [7]: > 100 µM; TGI [7]: > 100 µM; GI50 [8]: > 100 µM; TGI [8]: > 100 µM; GI50 [9]: > 100 µM; TGI [9]: > 100 µM; GI50 [10]: > 100 µM; TGI [10]: > 100 µM; GI50 [11]: > 100 µM; TGI [11]: > 100 µM; GI50 [12]: 36 µM; TGI [12]: > 100 µM; GI50 [13]: > 100 µM; TGI [13]: > 100 µM; GI50 [14]: > 100 µM; TGI [14]: > 100 µM; GI50 [15]: > 100 µM; TGI [15]: > 100 µM; GI50 [16]: > 100 µM; TGI [16]: > 100 µM; GI50 [17]: > 100 µM; TGI [17]: > 100 µM; GI50 [18]: > 100 µM; TGI [18]: > 100 µM; GI50 [19]: > 100 µM; TGI [19]: > 100 µM; GI50 [20]: > 100 µM; TGI [20]: > 100 µM; GI50 [21]: 3.43 µM; TGI [21]: > 100 µM; GI50 [22]: > 100 µM; TGI [22]: > 100 µM; GI50 [23]: > 100 µM; TGI [23]: > 100 µM; GI50 [24]: 3.23 µM; TGI [24]: > 100 µM; GI50 [25]: 96.8 µM; TGI [25]: > 100 µM; GI50 [26]: 0.153 µM; TGI [26]: > 100 µM; GI50 [27]: > 100 µM; TGI [27]: > 100 µM; GI50 [28]: > 100 µM; TGI [28]: > 100 µM; GI50 [29]: > 100 µM; TGI [29]: > 100 µM; GI50 [30]: > 100 µM; TGI [30]: > 100 µM; GI50 [31]: > 100 µM; TGI [31]: > 100 µM; GI50 [32]: 5.26 µM; TGI [32]: > 100 µM; GI50 [33]: > 100 µM; TGI [33]: > 100 µM; GI50 [34]: > 100 µM; TGI [34]: > 100 µM; GI50 [35]: 4.18 µM; TGI [35]: > 100 µM; GI50 [36]: > 100 µM; TGI [36]: > 100 µM; GI50 [37]: > 100 µM; TGI [37]: > 100 µM; GI50 [38]: > 100 µM; TGI [38]: > 100 µM; GI50 [39]: > 100 µM; TGI [39]: > 100 µM; GI50 [40]: > 100 µM; TGI [40]: > 100 µM; GI50 [41]: > 100 µM; TGI [41]: > 100 µM; GI50 [42]: 1.1 µM; TGI [42]: 5.76 µM; GI50 [43]: > 100 µM; TGI [43]: > 100 µM; GI50 [44]: > 100 µM; TGI [44]: > 100 µM; GI50 [45]: 0.2 µM; TGI [45]: > 100 µM; GI50 [46]: > 100 µM; TGI [46]: > 100 µM; GI50 [47]: > 100 µM; TGI [47]: > 100 µM
